Here are results for 14 molecules from ChEMBL document CHEMBL1255181, “Synthesis and in vitro evaluation of N-alkyl-7-methoxytacrine hydrochlorides as potential cholinesterase inhibitors in Alzheimer disease” (Bioorg Med Chem Lett, 2010).

The source made the active and inactive calls. No cut-off for these calls is given here.

One assay deals with Acetylcholinesterase (Homo sapiens, UniProt P22303).
For assay [1], the target named is T1, Cholinesterase (Homo sapiens, UniProt P06276).
Description: Inhibition of human plasmatic BChE after 5 mins
Assay [2] addresses T1, Cholinesterase. Put plainly: Inhibition of human plasmatic BChE at 1 mM to 0.1 nM after 5 mins. In kind it is cell-free. To be noted: Plasma.

Sequence of Acetylcholinesterase (P22303 whole entry): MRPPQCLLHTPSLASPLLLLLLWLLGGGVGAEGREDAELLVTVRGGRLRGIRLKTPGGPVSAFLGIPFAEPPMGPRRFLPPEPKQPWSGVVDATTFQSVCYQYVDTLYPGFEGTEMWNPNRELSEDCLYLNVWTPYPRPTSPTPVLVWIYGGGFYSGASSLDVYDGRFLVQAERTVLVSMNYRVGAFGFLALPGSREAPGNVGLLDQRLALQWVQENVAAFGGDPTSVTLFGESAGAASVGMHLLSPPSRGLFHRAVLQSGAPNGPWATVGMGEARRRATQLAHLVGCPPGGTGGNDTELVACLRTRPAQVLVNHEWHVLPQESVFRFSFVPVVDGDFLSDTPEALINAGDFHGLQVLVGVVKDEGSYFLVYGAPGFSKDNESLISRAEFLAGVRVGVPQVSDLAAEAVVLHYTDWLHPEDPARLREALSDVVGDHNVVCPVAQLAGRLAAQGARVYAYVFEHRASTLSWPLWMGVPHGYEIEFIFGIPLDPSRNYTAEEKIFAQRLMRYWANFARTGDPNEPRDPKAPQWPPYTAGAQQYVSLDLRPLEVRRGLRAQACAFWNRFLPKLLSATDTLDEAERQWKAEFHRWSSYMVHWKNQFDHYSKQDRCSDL
T1 sequence (P06276 whole entry): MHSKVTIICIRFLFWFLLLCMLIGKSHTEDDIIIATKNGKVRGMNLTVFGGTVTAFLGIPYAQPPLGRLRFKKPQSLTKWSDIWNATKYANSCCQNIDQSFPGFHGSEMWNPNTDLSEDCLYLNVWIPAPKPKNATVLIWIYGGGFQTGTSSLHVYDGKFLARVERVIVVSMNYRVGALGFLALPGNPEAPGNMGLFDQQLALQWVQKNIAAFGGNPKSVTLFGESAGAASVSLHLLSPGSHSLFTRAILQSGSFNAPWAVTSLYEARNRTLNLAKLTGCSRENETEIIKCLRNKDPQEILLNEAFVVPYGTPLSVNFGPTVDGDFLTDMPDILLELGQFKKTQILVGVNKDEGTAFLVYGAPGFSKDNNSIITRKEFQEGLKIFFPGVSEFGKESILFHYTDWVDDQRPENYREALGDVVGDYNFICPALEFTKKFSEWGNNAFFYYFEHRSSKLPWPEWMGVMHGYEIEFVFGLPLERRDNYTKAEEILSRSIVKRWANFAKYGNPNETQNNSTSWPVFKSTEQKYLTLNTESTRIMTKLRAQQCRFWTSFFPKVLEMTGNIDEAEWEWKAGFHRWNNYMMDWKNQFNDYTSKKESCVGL
Description for Acetylcholinesterase: Inhibition of human recombinant AChE after 5 mins

Usually IC50 stands for the concentration needed to halve the response being measured. A higher IC50 goes with weaker potency. As to `CCCCCCNc1c2c(nc3ccc(OC)cc13)CCCC2`, the IC50 against Acetylcholinesterase turned out to be 0.1 µM; on Cholinesterase [1] it was 1 µM. As to `CCCCCCCCCCCCCCCNc1c2c(nc3ccc(OC)cc13)CCCC2`, on Cholinesterase [2], the inhibition result was “inactive”. With `CCNc1c2c(nc3ccc(OC)cc13)CCCC2`, the IC50 against Acetylcholinesterase is 66 µM; on Cholinesterase [1], 97 µM. Regarding `CCCCCCCCNc1c2c(nc3ccc(OC)cc13)CCCC2`, the IC50 against Acetylcholinesterase was determined as 0.36 µM; at Cholinesterase [1] it was 0.12 µM. For the molecule `CCCCCCCCCCCCCNc1c2c(nc3ccc(OC)cc13)CCCC2`, the inhibition entry at Cholinesterase [2] is “inactive”. The molecule further returned an IC50 against Acetylcholinesterase of 100 µM. As to `CCCCCCCCCCCCNc1c2c(nc3ccc(OC)cc13)CCCC2`, the inhibition result at Cholinesterase [2] is “inactive”. Moreover, the IC50 against Acetylcholinesterase is 1 µM. Consider `CCCCCCCNc1c2c(nc3ccc(OC)cc13)CCCC2`, for which the IC50 was 0.27 µM against Acetylcholinesterase and 0.04 µM against Cholinesterase [1].

For the molecule `CCCCNc1c2c(nc3ccc(OC)cc13)CCCC2`, the results for the IC50 against Acetylcholinesterase and on Cholinesterase [1] were 21 µM and 64 µM, respectively. In the case of `CCCCCCCCCCCCCCNc1c2c(nc3ccc(OC)cc13)CCCC2`, on Cholinesterase [2], the inhibition result is “inactive”. The IC50 on Acetylcholinesterase stood at 46 µM.

For the molecule `CCCCCCCCCCCNc1c2c(nc3ccc(OC)cc13)CCCC2`, the inhibition entry on Cholinesterase [2] is “inactive”. Turning to `CCCCCNc1c2c(nc3ccc(OC)cc13)CCCC2`, the IC50 on Acetylcholinesterase amounted to 6.7 µM; at Cholinesterase [1], 16 µM. Take `CCCCCCCCCCNc1c2c(nc3ccc(OC)cc13)CCCC2`: on Cholinesterase [2], the inhibition entry is “inactive”. As to `CCCNc1c2c(nc3ccc(OC)cc13)CCCC2`, the IC50 on Acetylcholinesterase came out at 9.2 µM; against Cholinesterase [1], 70 µM.

Regarding `CCCCCCCCCNc1c2c(nc3ccc(OC)cc13)CCCC2`, the IC50 against Acetylcholinesterase stood at 1.6 µM; against Cholinesterase [1], 0.36 µM.
